Results taken from patent US4798892A, “2-hydroxypropylamine heteroaryl ester derivatives” (priority 1986, dated 1989).
Counter-ions that a name gives are not always drawn.

What was measured:
[1] = target: T1, beta adrenergic receptor (guinea pig right atria) (Cavia porcellus, UniProt H0W3H1); assay: Beta-blocking activity in vitro, guinea pig right atria (blockade of isoproterenol rate response); settings: Table I; guinea pig right atria, isoproterenol agonist, 60-minute incubation, 37° C.; read-out: PA2 Rt. Atria (converted)
T1 construct: guinea pig right atria and guinea pig tracheal strips mounted in a tissue bath; from tissue; host or cells: guinea pig right atria, spontaneously beating
T1 sequence (H0W3H1 1-470): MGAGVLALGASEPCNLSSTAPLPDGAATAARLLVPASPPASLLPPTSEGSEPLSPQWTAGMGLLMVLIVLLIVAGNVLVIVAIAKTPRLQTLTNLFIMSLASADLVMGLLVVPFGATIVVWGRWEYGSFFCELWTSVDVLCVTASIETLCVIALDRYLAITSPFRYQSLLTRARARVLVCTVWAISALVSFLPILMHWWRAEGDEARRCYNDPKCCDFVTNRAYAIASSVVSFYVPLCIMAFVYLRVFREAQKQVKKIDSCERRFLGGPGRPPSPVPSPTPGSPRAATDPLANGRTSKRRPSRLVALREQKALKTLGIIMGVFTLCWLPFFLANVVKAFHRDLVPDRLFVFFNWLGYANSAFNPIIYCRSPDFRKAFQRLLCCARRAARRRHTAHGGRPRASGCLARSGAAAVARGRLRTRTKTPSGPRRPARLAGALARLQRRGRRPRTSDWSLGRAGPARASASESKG

[2] = system: beta adrenergic receptor (guinea pig trachea vs right atria); assay: Degree of cardioselectivity in vitro, KB trachea/KB atria; settings: Table I; ratio greater than one indicates cardioselectivity
Protocol: Each tissue was suspended between a fixed glass rod and a Statham Universal Transducer connected to a Beckman recorder. Atria were allowed to beat spontaneously under a loading tension of approximately 0.5 gm. Intrinsic depressant or stimulant activity was determined for each compound by progressively increasing concentrations in the tissue baths at 60-minute intervals. Tissues were not washed between increments. The maximum concentration showing little or no cardiodepressant activity was chosen for blockade experiments. Changes in rate in response to isoproterenol, a standard β-receptor agonist, were measured in the absence and presence of test compounds. Spiral strips of guinea pig trachea were suspended under 5 gm resting tension and incubated with phentolamine, tropolone and cocaine. Active tension was generated by addition of carbachol (3.0×10^-7 M) and decreases in tension in response to isoproterenol were quantitated. Cumulative concentration-response curves were produced with isoproterenol both before and after 60-minute incubation of test compounds with atria and trachea. […] The blocking potency of test compounds was estimated by computing pA2 values (-log […]) by the method of Furchgott, the Pharmacological Differentiation of Adrenergie Receptors, Ann. […] The degree of cardioselectivity was estimated from the ratio, KB trachea/KB atria (10^(pA.sbsp.2^atria-pA.sbsp.2^trachea)). A ratio greater than one indicates cardioselectivity. Test drugs were dissolved in distilled water and added to the bath (30 ml) in a volume of 10 or 100 μl.

[3] = Enzymatic hydrolysis of beta blockers by dog blood (procedure C); assay type: in vitro ADME; settings: dog, blood, 37° C.; for remaining at 1 h: read-out: Percent drug remaining, dog blood, 1 HR; for remaining at 2 h: read-out: Percent drug remaining, dog blood, 2 HR
Protocol: (§1) Chemicals--Acetonitrile was "HPLC" grade. Distilled water was used to dissolve the compounds and 0.01N HCl was used to dissolve compounds requiring an acidic pH for dissolution.
(§2) Enzyme Source--Fresh aqueous humor was collected from eyes of dogs using a 23-gauge needle while fresh dog blood was collected into heparinized Vacutainer tubes. Fresh liver was homogenized in 0.9% NaCl using a Potter-Elvehjem Teflon pestle and glass homogenizer making a 25% (W/V) homogenate.
(§3) Incubation Condition--A 0.5 ml aliquot of dog aqueous humor, blood or liver homogenate was incubated with 12.5 μg (0.5 ml) of beta blocker in a Dubnoff shaking metabolic incubator at 37° C. for 60 and 120 min. Denatured tissue controls were prepared by adding 2.0 ml of acetonitrile into 0.5 ml of aqueous humor, blood or liver homogenate to destroy esterase activities prior to addition of the beta blockers. The controls were then incubated at 37° C. for 120 min. After 60 and 120 min, the incubations were terminated by addition of 2 ml of acetonitrile and immediately mixed by a Vortex® to stop esterase activities.
(§4) Sample Processing and Data Analyses--All samples were centrifuged at 4000 RPM for 10 min to sediment denatured proteins. The resultant supernatants were transferred to WISP® vials and analyzed using an HPLC assay developed for beta blockers. The hydrolysis of beta blockers by aqueous humor, blood and liver homogenate was determined by disappearance of the compounds. The extent of enzymatic hydrolysis by each tissue was determined by comparing the amount of each compound (absolute peak area) recovered at each time point to the amount of each compound (absolute peak area) in denatured tissue control and aqueous control samples. The results of these experiments are shown in Tabe III.

[4] = Enzymatic hydrolysis of beta blockers by dog liver homogenate (procedure C); assay type: in vitro ADME; settings: dog, liver homogenate, 37° C.; for remaining at 1 h: read-out: Percent drug remaining, dog liver homogenate, 1 HR; for remaining at 2 h: read-out: Percent drug remaining, dog liver homogenate, 2 HR
Protocol: as §1, §2, §3, §4

[5] = Enzymatic hydrolysis of beta blockers by dog aqueous humor (procedure C); assay type: in vitro ADME; settings: for remaining at 1 h / remaining at 2 h: 37° C.; for remaining at 1 h: read-out: Percent drug remaining, dog aqueous humor, 1 HR; for remaining at 2 h: read-out: Percent drug remaining, dog aqueous humor, 2 HR
Protocol: as §1, §2, §3, §4

[6] = Half-lives of beta blockers in dog whole blood (procedure D); assay type: in vitro ADME; settings: 37° C., read-out: T1/2 dog blood
Protocol: (§5) The rate of disappearance of a compound is expressed as the half-life (T1/2), which is the time period in which one half of the initial amount of compound tested disappears. In each experiment, 1 ml of a solution containing 50 μg of the test compound was added to 1 ml of whole blood or 1 ml of a 33% (w/v) liver homogenate. The samples were incubated in a Dubnoff shaking metabolic incubator for 2.5, 5.0, 10.0, 20.0, 30.0 and 60.0 minutes at 37° C. At the designated time periods, the test mixtures were removed from the incubator and transferred to a 0° C. ice bath. Acetonitrile (2 ml) was immediately added and the mixtures were mixed to stop enzymatic hydrolysis. Zero time samples were prepared by adding 2 ml of acetonitrile to denature the proteins prior to addition of the test compounds. After centrifugation to sediment denatured proteins, 2 ml of the supernatant was removed and analyzed by high pressure liquid chromatography, using a mobile phase of 60% acetonitrile/40% 0.05 m sodium phosphate buffer (pH 6.6), a U.V. detector and Waters u Bondapak Phenyl column. The half life of each test compound was determined graphically by plotting the decrease in concentrations as a function of time.

[7] = system: beta adrenergic receptor (heart rate response to isoproterenol); assay: Duration and potency of beta-blocking action in vivo, 3-hour infusion in pentobarbital-anesthetized dogs; set-up: species or system dog; settings: Table II; for Potency: infusion rate adjusted so isoproterenol inhibition averaged about 50% at end of 3-hour infusion; for % I (Percent inhibition of heart rate response to isoproterenol): isoproterenol 0.5 μg/kg bolus, 3-hour infusion
Protocol: The duration of β-blockade was determined in vivo using pentobarbital-anesthetized dogs instrumented for measurement of heart rate using a Beckman cardiotachometer triggered electronically by a phasic aortic blood pressure signal. Both vagus nerves were severed in the cervical region and the animals were mechanically ventilated. The experimental design used employed a 3-hour infusion of test compound. Bolus doses of isoproterenol (0.5 μg/kg) were used to assess the degree of β-blockade and recovery from β-blockade after […] of the infusion. The doses were spaced at 10-minute intervals and were given before, during and following the infusion of test compounds. The infusion rate was adjusted so that at the end of the 3-hour infusion period the degree of isoproterenol inhibition averaged about 50% of control. Following termination of blocker infusion, percent recovery from β-blockade was computed and the time associated with 80% recovery estimated.

[8] = Half-lives of beta blockers in dog liver homogenate (procedure D); assay type: in vitro ADME; settings: 33% (w/v) homogenate, 37° C., read-out: T1/2 dog liver homogenate
Protocol: as §5

[9] = Physician's Desk Reference, 35th Edition, 1981, p. 1233; cited from earlier work
[10] = after termination of 3-hour infusion

Row | SMILES | Kb [1] [nM] | Cardioselectivity KB (Trachea)/KB (Atria) [2] | remaining at 1 h [3] [%] | remaining at 2 h [3] [%] | remaining at 1 h [4] [%] | remaining at 2 h [4] [%] | remaining at 1 h [5] [%] | remaining at 2 h [5] [%] | half-life ([5]; approximate value determined by procedure C, read-out: T1/2 dog aqueous humor) [min] | metabolised at 1 h ([5]; one hour, read-out: hydrolyzed in aqueous humor after one hour) [%] | metabolised at 2 h ([5]; two hours, read-out: hydrolyzed in aqueous humor after two hours) [%] | half-life [6] [min] | Recovery Time 80% [7, 10] [min] | Potency [7] [mg/kg/180 min] | % I (Percent inhibition of heart rate response to isoproterenol) [7] [%] | half-life [8] [min] | Recovery Time 50% [7, 10] [min] | adverse reactions to topical use [9]
1 | CC(C)(CNC(=O)N1CCOCC1)NCC(O)COC(=O)c1ccccc1F (stereo not drawn) [Example II, 3-[1,1-Dimethyl-2-(1-morpholinocarbonylamino)]ethylamino-2-hydroxypropyl 2-Fluorobenzoate Hydrochloride] | 3.16 | 2 | 0 | 0 | 0 | 0 | 58 | 32 | 60 to 120 | 42 | 68 | 15 |  |  |  |  |  | 
2 | CC(C)(CNC(N)=O)NCC(O)COC(=O)c1ccccc1F (stereo not drawn) [Example X, 3-[1,1-Dimethyl-2-(aminocarbonylamino)]ethylamino-2-hydroxypropyl 2-Fluorobenzoate] | 20 |  | 0 | 0 | 0 | 0 | 0 | 0 |  |  |  | 15 | 21 | 0.7 | 49 | 2.5 |  | 
3 | CCOC(=O)NCC(C)(C)NCC(O)COC(=O)c1ccccc1F (stereo not drawn) [IX, 3-[1,1-Dimethyl-2-(ethoxycarbonylamino)]ethylamino-2-hydroxypropyl 2-Fluorobenzoate Hydrochloride] | 79.4 |  | 0 | 0 | 0 | 0 | 0 | 0 |  |  |  | 8 | 8 ± 3 | 6.5 ± 1.8 | 49 ± 4 | 1 | 3 ± 1 | 
4 | CC(C)(CNC(=O)Nc1ccccc1)NCC(O)COC(=O)c1ccccc1F (stereo not drawn) [XII, 3-[1,1-Dimethyl-2-(phenylaminocarbonylamino)]ethylamino-2-hydroxypropyl 2-Fluorobenzoate] | 79.4 | 5 |  |  |  |  |  |  |  |  |  |  |  |  |  |  |  | 
5 | CC(C)(CNC(=O)N1CCOCC1)NCC(O)COC(=O)c1cc(O)cc(O)c1 (stereo not drawn) [XXXVIII, 3-[1,1-Dimethyl-2-(1-morpholinocarbonylamino)]ethylamino-2-hydroxypropyl 3,5-Dihydroxybenzoate Oxalate Hemihydrate] | 1 | 1 |  |  |  |  |  |  |  |  |  |  |  |  |  |  |  | 
6 | CC(C)(C)NC[C@H](O)COc1nsnc1N1CCOCC1 [timolol maleate] |  |  |  |  |  |  |  |  |  |  |  |  |  |  |  |  |  | bronchospasm and heart failure, as well as cardiac conduction defects
